This note sets out measurements from publication PMC4422685, “A New APEH Cluster with Antioxidant Functions in the Antarctic Hemoglobinless Icefish Chionodraco hamatus” (PLoS ONE, 2015).

Molecules are shown by their SMILES.

Broadly, the Km is the substrate concentration at which the rate is half of its maximum.

Assay [1] has as its target T1, APEH-1Dl (Dicentrarchus labrax, UniProt A0A8C4H3D3).
T1 construct: native, purified from red blood cells; 80 kDa monomer, about 300 kDa homotetramer; N-terminus 1AAESQPATEE; deposited cDNA covers only 208 aa of the C-terminal part
As to the kind of experiment: exopeptidase (aminopeptidase) assay, pNA release. The assay is classed as biochemical. The settings on record: 15 °C. An excerpt:
exopeptidase (aminopeptidase) assay, pNA release on APEH-1Dl

For assay [2], the target named is T1, APEH-1Dl. As to the kind of experiment: exopeptidase assay, fluorogenic AMC release. The format is biochemical. As to conditions: 15 °C. An excerpt: exopeptidase assay, fluorogenic AMC release on APEH-1Dl

T1 sequence (A0A8C4H3D3 entry or part of it): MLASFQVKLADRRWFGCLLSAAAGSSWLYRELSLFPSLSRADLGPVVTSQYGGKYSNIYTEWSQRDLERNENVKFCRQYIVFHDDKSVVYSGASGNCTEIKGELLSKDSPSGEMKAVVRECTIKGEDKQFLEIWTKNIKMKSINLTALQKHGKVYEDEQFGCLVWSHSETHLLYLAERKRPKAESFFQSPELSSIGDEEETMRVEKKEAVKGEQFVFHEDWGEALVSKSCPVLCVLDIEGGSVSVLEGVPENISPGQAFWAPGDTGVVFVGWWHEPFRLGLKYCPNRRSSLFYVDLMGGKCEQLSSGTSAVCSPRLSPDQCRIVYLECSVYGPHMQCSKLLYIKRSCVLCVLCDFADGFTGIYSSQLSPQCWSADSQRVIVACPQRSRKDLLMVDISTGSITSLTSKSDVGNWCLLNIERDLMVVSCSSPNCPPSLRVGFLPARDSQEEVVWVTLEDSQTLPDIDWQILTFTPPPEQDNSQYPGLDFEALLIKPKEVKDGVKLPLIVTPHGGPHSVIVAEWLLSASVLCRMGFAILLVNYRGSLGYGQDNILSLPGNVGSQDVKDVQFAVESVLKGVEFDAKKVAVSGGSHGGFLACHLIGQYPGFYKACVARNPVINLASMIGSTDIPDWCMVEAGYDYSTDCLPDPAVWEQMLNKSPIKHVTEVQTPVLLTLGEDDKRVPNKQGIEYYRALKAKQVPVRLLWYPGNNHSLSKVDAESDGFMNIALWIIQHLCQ

For `CC(=O)N[C@@H](C)C(=O)Nc1ccc([N+](=O)[O-])cc1` [Ac-Ala-pNA], the Km on APEH-1Dl [1] was 28 µM.

For the compound `CSCC[C@H](NC(C)=O)C(=O)Nc1ccc2c(C)cc(=O)oc2c1` [Ac-Met-AMC], the Km on APEH-1Dl [2] amounted to 52 µM.
